The NIST ThermoML archive (doi:10.1016/j.jct.2012.03.014)

Assay: cn = amount concentration of the nth substance listed, in mol/dm3
Details: 298.15 K, 101 kPa, Liquid, Taylor dispersion method

CC(=O)Nc1ccc(O)cc1 [N-acetyl-p-aminophenol] + O
Details	binary diffusion coefficient [m2/s]
c1 = 0.001	6.63e-10
c1 = 0.003	6.59e-10
c1 = 0.005	6.54e-10
c1 = 0.01	6.5e-10
c1 = 0.03	6.29e-10
c1 = 0.05	6.21e-10
